Assay results from PubChem BioAssay (NCI).
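Results reflect a 48-hour exposure of cells in 96-well plates to compound at five concentrations. Definition used: TGI = concentration required for complete inhibition of growth.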

What was measured:
Experiment in all cases: inhibition of tumour cell growth, NCI panel, 48 h
U251 CNS = test system: U251 CNS
SW-620 colon = test system: SW-620 colon
SNB-78 CNS = test system: SNB-78 CNS
DMS 273 small cell lung = test system: DMS 273 small cell lung
SF-539 CNS = test system: SF-539 CNS
SN12K1 renal = test system: SN12K1 renal
NCI-H226 lung = test system: NCI-H226 lung
RPMI-8226 leukemia = test system: RPMI-8226 leukemia
SN12C renal = test system: SN12C renal
OVCAR-5 ovarian = test system: OVCAR-5 ovarian
XF 498 CNS = test system: XF 498 CNS
OVCAR-8 ovarian = test system: OVCAR-8 ovarian
NCI-H460 lung = test system: NCI-H460 lung
KM20L2 colon = test system: KM20L2 colon
DMS 114 small cell lung = test system: DMS 114 small cell lung
M14 melanoma = test system: M14 melanoma
SR leukemia = test system: SR leukemia
MDA-N = test system: MDA-N
HS 578T breast = test system: HS 578T breast
T-47D breast = test system: T-47D breast

| SMILES | TGI (U251 CNS) [µM] | TGI (SW-620 colon) [µM] | TGI (SNB-78 CNS) [µM] | TGI (DMS 273 small cell lung) [µM] | TGI (SF-539 CNS) [µM] | TGI (SN12K1 renal) [µM] | TGI (NCI-H226 lung) [µM] | TGI (RPMI-8226 leukemia) [µM] | TGI (SN12C renal) [µM] | TGI (OVCAR-5 ovarian) [µM] | TGI (XF 498 CNS) [µM] | TGI (OVCAR-8 ovarian) [µM] | TGI (NCI-H460 lung) [µM] | TGI (KM20L2 colon) [µM] | TGI (DMS 114 small cell lung) [µM] | TGI (M14 melanoma) [µM] | TGI (SR leukemia) [µM] | TGI (MDA-N) [µM] | TGI (HS 578T breast) [µM] | TGI (T-47D breast) [µM] |
| --- | --- | --- | --- | --- | --- | --- | --- | --- | --- | --- | --- | --- | --- | --- | --- | --- | --- | --- | --- | --- |
| CC(C)=CCC/C(C)=C/CCC1(C)C=Cc2c(c3ccccc3oc2=O)O1 (configuration not stated) | 28.8 | 33.7 | > 92.8 | 32 | 30.5 | 30.7 | 30 | 63.8 | 32 | 32.6 | 29.4 | 30.3 | 30.1 | 34 | 29.8 |  |  |  |  |  |
| O=C(O)C12CC3CC(C1)C2C=C3P(=O)(O)O (configuration not stated) | > 100 | > 100 |  | > 100 |  |  | > 100 | > 100 | > 100 | > 100 |  | > 100 | > 100 | > 100 | > 100 | > 100 |  |  |  |  |
| COc1cc(/C=C/C2=C(C#N)C(=O)OC2(C)C)ccc1O | 31.7 | > 100 | > 100 | > 100 |  |  | > 100 | 49.6 | > 100 | > 100 |  | > 100 | > 100 | > 100 |  |  | 67.3 |  |  |  |
| Cc1cn(C2CC(O)C(Cn3nncc3Cn3ncc(=O)[nH]c3=O)O2)c(=O)[nH]c1=O (configuration not stated) | > 100 | > 100 |  |  | > 100 |  | > 100 | > 100 | > 100 | > 100 |  | > 100 |  |  |  | > 100 |  | > 100 | > 100 | > 100 |
| C=CCNC(=O)CN(CC(=O)OC)C1CCCCC1N(CC(=O)OC)CC(=O)OC (configuration not stated) | > 100 | > 100 |  |  | > 100 |  | > 100 | > 100 | > 100 | > 100 |  | > 100 | > 100 |  |  | > 100 |  | > 100 | > 100 | > 100 |
| Cc1c(C2=NN=C(N=Nc3c(O)cccc3O)/C2=C/c2ccccc2)c(=O)n(-c2ccccc2)n1C | > 100 | > 100 | > 100 | > 100 | > 100 | > 100 | > 100 | > 100 | > 100 | > 100 | > 100 | > 100 | > 100 | > 100 | > 100 |  |  |  |  |  |
| CC(C)=CC(=O)OC1C2C(C)=CC(O)C(O)C2(C)C2C3(O)OCC24C(CC(=O)OC14)C(C)C3O (configuration not stated) | 0.248 | 4.81 | 1.11 | 0.101 | 0.187 | 0.0909 | 0.388 | 0.131 | 6.9 | 3.79 | 0.587 | 0.82 | 0.337 | 4.57 | 0.0567 |  |  |  |  |  |
| COc1cc(C(=O)C2CC3(CCC2(O)c2cc(OC)c(OC)c(OC)c2)CC(=O)Nc2ccccc2C3=O)cc(OC)c1OC (configuration not stated) | > 100 | > 100 |  |  | > 100 |  | > 100 |  | > 100 | > 100 |  | > 100 | 50.7 |  |  | > 100 | > 100 | > 100 | > 100 | > 100 |
| Nc1n[nH]c(CCCCCCCc2nc(N)n[nH]2)n1 | > 100 |  | > 100 |  | > 100 |  |  | > 100 | > 100 | > 100 |  |  | > 100 |  | > 100 | > 100 | > 100 |  |  |  |
